Each block holds one molecule with its values, some of them ahead of it.
Columns and labels:
[1] = test system: L-PK gene; test: L-PK promoter luciferase reporter in ChREBP-transfected primary hepatocytes with kinase/phosphatase inhibitors or db-cAMP; details: treatment with db-cAMP, low and high glucose
Experimental: Primary hepatocytes were prepared from male Sprague-Dawley rats using the collagenase (Life Technologies, Inc.) perfusion method (Berry and Friend (1969) J Cell Bio […], 506-520) and plated in collagen-coated six-well tissue culture plates (Primaria Falcon, Franklin Lakes, N.J.) at a density of 1×10^6 cells/well in glucose-free Dulbecco's modified Eagle's medium (Life Technologies, Inc.) supplemented with 100 nM dexamethasone, 10 nM insulin, 100 units/ml penicillin, 100 μg/ml streptomycin and 10% dialyzed fetal bovine serum (Life Technologies, Inc.). Following attachment, synthetic liposomes were used to transfect hepatocytes with 0.5 μg of the luciferase reporter plasmid and 0.1 μg of the internal control plasmid pRL-TK. After 14 h the media was replaced by Dulbecco's modified Eagle medium supplemented with 100 nM dexamethasone, 10 nM insulin, 10% Fetal Bovine Serum and either 10 mM lactate, 5.5 mM glucose or 27.5 mM glucose. The cells were incubated for an additional 12 h prior to determination of luciferase activity using the Dual-Luciferase Reporter Assay System (Promega).
Protein Kinase and Protein Phosphatase Inhibitors—Prior to exchange to 5.5 or 27.5 mM glucose medium, transfected primary culture hepatocytes were treated for 1 h with 10 μM H-89, 500 nM cantharidic acid (Calbiochem), 5 μM KN-62 (Calbiochem), 30 μM PD98059 (Calbiochem), 50 μM Genistein, or dimethylsulfoxide vehicle.
Rat primary cultured hepatocytes were transfected a plasmid comprising a gene encoding the wild type (WT)-ChREBP. H-89, cantharidic acid, or dimethylsulfoxide vehicle was added, and the cells were incubated in 5.5 mM (□) or 27.5 mM (▪) glucose for 12 h.
Rat primary cultured hepatocytes were transfected with wild type (WT)-ChREBP, S626A, S626D, T666A, or T666D. After transfection, the cells were incubated in 5.5 mM (□) or 27.5 mM (▪) glucose for 12 h. […] Rat primary cultured hepatocytes were transfected with wild type (WT)-ChREBP, S196A+S626A, or S196A+T666A. After transfection, cells were incubated under 5.5 mM (□) or 27.5 mM (▪) glucose, and cAMP was added both low and high glucose.

[2] = test system: GFP-fused ChREBP; test: Subcellular localization of GFP-fused ChREBP in primary hepatocytes (confocal microscopy); format: cell-based, rat; details: within 10 min after addition of db-cAMP into 27.5 mM glucose medium, preliminary, n=3
Experimental: Determination of Subcellular Localization of ChREBP—Subcellular localization of GFP-fused WT-ChREBP or its mutants was determined using a confocal laser scanning microscope (Bio Rad, Hercules, Calif.). In order to quantitate nuclear localization of ChREBP, for each condition, 100 transfected hepatocytes from 5 independent experiments were scored in a blinded fashion as to whether the GFP-fused ChREBP was predominantly nuclear or cytoplasmic. The identity of the nucleus was verified by comparative phase-contrast microscopy. B. Results
Rat primary cultured hepatocytes were transfected with a plasmid comprising a gene encoding the GFP-fused wild type-ChREBP or NLS domain deletion mutants. […] The values are expressed as mean±SE. *P<0.05 compared to that of wild type-ChREBP.

[3] = test system: ChREBP; test: Intraperitoneal db-cAMP in rats, gel shift of liver nuclear extracts; format: in vivo, rat; details: rats fed high carbohydrate diet, db-cAMP 1 mmol/kg intraperitoneally
Experimental: Treatment of Rats with Dibutyryl (db)-cAMP and Nuclear Extract Preparation—Male Sprague-Dawley rats weighting 250 g were used in all experiments. After 48 h starvation, the rats were fed a high carbohydrate diet and db-cAMP (1 mmol/kg) was injected intraperitoneally. The rats were sacrificed 10 min and 30 min after injection and nuclear extracts were prepared immediately from rat liver as described in Example 1. Gel shifts were performed as described in Example 2.

[4] = test system: cultured hepatocytes; test: AMP, ADP, ATP assays in cultured hepatocytes; format: cell-based, rat; details: hepatocytes 12 h with 150 µM fatty acid, mean±S.E., n=4
Experimental: Hepatocytes were scraped and collected directly into 0.5 ml of ice-cold 6% (v/v) HClO4. The concentrations of ADP and ATP were determined enzymatically in the acid-extract with methods described (Kawaguchi, T., Veech, R. L., and Uyeda, K. (2001) J. Biol. Chem. 276, 28554-28561), and the cytosolic AMP was calculated by the method of Veech et al. (Veech, R. L., Lawson, J. W., Cornell, N. W., and Krebs, H. A. (1979) J. Biol. Chem. 254, 6538-6547).
Values are expressed as mean±S.E. (n=4).

[5] = test system: AMPK; test: AMPK activity in hepatocytes (SAMS peptide); format: cell-based, rat; details: fatty acid added to high glucose medium
Experimental: The extract was centrifuged at 15,800·g for 15 min, and the resulting supernatant solution was transferred to a fresh tube, adjusted to 10% with polyethylene glycol 8000 ([…], France), and incubated on ice for 20 min. Following centrifugation at 15,800·g for 15 min, the pellet was suspended in 100 μl buffer A. […] A. (2000) Proc. Natl. Acad. Sci. USA. 97, 4023-4028).

[6] = test system: ChREBP; test: Gel shift of purified ChREBP after incubation with PKA/PP2A in vitro; format: biochemical, rat; details: catalytic subunit of PP2A 0.025 U/μl added
Experimental: Gel shift assay. Gel mobility shift assays were performed as described by Liu et al. (Liu et al. (1993) J Biol Chem 268, 12787-12795). Double-stranded oligonucleotides (Table 1) were prepared by mixing equal amounts of the complementary single-stranded DNAs in 50 mM NaCl, heating to 70° C. for 15 min, and cooling to room temperature. The annealed oligonucleotides were labeled with ^32P in the presence of [γ^32P]-ATP (Amersham Pharmacia) and T4 polynucleotide kinase (New England Biolabs). Binding reactions were carried out in reaction mixture containing 20 mM Hepes (pH 7.9), 50 mM KCl, 5 mM DTT, 0.2 mM EDTA, 0.5 mM PMSF, 10% glycerol, 1 μg/μl of poly(dI-dC) (Amersham Pharmacia) and 1 μg/μl of nuclear extract. The reaction mixture was incubated at room temperature for 30 min and DNA-protein complexes were separated by electrophoresis in a 4.5% nondenaturing polyacrylamide gel.
Purified ChREBP was incubated with PKA and/or PP2A in vitro and measured by gel-shift analysis with the [^32P]-radiolabeled WT oligonucleotide. Purified ChREBP was incubated for 20 min with ATP (1 mM), PKA (0.1 U/μl), 0.2 U/μl PKI, 0.025 U/μl PP2A and the PP2A inhibitor, okadaic acid (10 nM).

[7] = test system: C-terminus ChREBP (bHLH/ZIP domain, Thr666); test: Phosphorylation/dephosphorylation and DNA binding of recombinant C-terminus ChREBP; format: biochemical, mouse; details: catalytic subunit of PP2A 200 units, 30° C
Text: Recombinant Protein Production—Recombinant protein of mouse ChREBP was expressed in Escherichia coli by inserting the C-terminus of the ChREBP construct, encoding the amino acids 651-864 of ChREBP+His6 tag, into the BamHI and HindIII sites of the T7-based expression vector pMal-c2 (New England Bio Lab, Beverly, Mass.) to produce an N-terminal fusion with maltose-binding protein. Expressed protein was purified according to manufacturer's instruction.
Phosphorylation and Dephosphorylation of ChREBP—The reaction mixture contained, in a final volume of 0.2 ml, 50 mM Tris/Cl pH 7.5, 0.2 μM [γ-^32P]ATP (3000 Ci/mmol), 5 mM MgCl2, 0.2 mM EDTA, 2 mM dithiothreitol, and 5 mM potassium phosphate. […] At given time intervals, aliquots were removed and DNA-binding activity was determined by gel shift assay as described in Example 2. [^32P]phosphate-bound ChREBP was also determined as previously described (Kitajima and Uyeda (1983) J. Biol Chem 258, 7352-7357).
FIG. 13A is a graph showing that phosphate incorporation mediated by PKA correlates directly with DNA binding. […] At given time intervals, [^32P]phosphate incorporation (□) and DNA-binding activity (▪) were determined. Values are expressed as mean±SE. […] At given time intervals, remaining phosphorylated C-terminus ChREBP (□) and DNA-binding activity (▪) were determined. Values are expressed as mean±SE.

[8] = target: T1, ChREBP (Carbohydrate Response Element Binding Protein) from rat liver (UniProt Q8VIP2)
T1 sequence: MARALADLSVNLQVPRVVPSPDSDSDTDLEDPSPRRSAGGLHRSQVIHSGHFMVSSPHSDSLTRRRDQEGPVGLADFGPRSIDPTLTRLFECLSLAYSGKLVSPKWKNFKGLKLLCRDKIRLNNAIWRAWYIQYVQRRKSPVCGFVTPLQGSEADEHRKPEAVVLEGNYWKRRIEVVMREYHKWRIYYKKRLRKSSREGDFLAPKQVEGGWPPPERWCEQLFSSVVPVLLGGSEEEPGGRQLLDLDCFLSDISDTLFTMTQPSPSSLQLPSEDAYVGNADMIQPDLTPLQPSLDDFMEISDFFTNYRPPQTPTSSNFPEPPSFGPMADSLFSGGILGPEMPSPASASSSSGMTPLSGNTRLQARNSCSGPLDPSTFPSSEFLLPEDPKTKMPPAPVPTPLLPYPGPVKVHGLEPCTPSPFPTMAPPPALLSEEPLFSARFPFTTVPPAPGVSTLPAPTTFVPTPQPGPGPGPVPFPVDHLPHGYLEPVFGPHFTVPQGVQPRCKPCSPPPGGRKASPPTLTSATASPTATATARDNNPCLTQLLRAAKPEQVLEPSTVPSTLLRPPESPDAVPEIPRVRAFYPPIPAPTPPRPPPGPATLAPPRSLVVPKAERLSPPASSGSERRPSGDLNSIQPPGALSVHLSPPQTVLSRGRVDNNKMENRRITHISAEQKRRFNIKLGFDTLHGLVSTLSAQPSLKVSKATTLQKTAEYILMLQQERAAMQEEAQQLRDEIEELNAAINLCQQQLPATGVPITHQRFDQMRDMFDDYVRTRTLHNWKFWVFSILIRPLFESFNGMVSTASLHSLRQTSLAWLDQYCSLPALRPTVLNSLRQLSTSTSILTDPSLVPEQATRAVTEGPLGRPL

[9] = target: T2, ChREBP, purified from rat liver (Rattus norvegicus, UniProt Q8VIP2 Q8VIP2:1-865); test: EMSA; purified ChREBP; details: label: 32P
T2 sequence: T1 sequence
Experimental: Purified ChREBP was incubated with PKA and/or PP2A in vitro and measured by gel-shift analysis with the [³²P]-radiolabeled WT oligonucleotide. Purified ChREBP was incubated for 20 min with ATP (1 mM), PKA (0.1 U/μl), 0.2 U/μl PKI, 0.025 U/μl PP2A and the PP2A inhibitor, okadaic acid (10 nM).

[10] = target: T2, ChREBP, purified from rat liver; test: pulldown; DNA-affinity column; eluted at 0.8 M KCl

transcriptional activity of S196A+T666A ChREBP double mutant [1]: not inhibited
Molecule: CCCC(=O)Nc1ncnc2c1ncn2[C@@H]1O[C@@H]2COP(=O)(O)O[C@H]2[C@H]1OC(=O)CCC [db-cAMP, Dibutyryl (db)-cAMP]
export of GFP-ChREBP from nuclei to cytoplasm [2]: not exported | time after injection to inactivation of ChREBP DNA-binding activity in liver nuclear extracts [3]: ≤ 10 min

Molecule: CCCCCCCC(=O)O [octanoate]
AMP [4]: 942 ± 106 nmol/g cells | AMP/ATP ratio [4]: 0.30 ± 0.03 | increase of AMPK activity compared to absence of fatty acid [5]: about two-fold

DNA-binding activity of inactivated ChREBP [6]: restored | DNA-binding activity of 32P-phosphorylated bHLH/ZIP domain on incubation with PP2A [7]: complete recovering of the activity
Molecule: PP2A: catalytic subunit of protein phosphatase 2A

Molecule: catalytic subunit of cAMP-dependent protein kinase (PKA)
radiolabeling of ChREBP with γ-[32P]-ATP (SDS-PAGE) [8]: leads to radiolabeling of ChREBP

B1: LPK ChRE WT (dsDNA)
DNA 1: GGGCGCACGGGGCACTCCCGTGGTTCC
DNA 2: GGAACCACGGGAGTGCCCCGTGCGCCC
binding result [9]: binds

B2: DNA-affinity column ChRE (dsDNA)
DNA 1: CATGGGCGCACGGGGCACTCCCGTGGTTCC
DNA 2: GGAACCACGGGAGTGCCCCGTGCGCCCATG
binding result [10]: binds
